Patent US20260217701A1, “SELECTIVE BET INHIBITORS AND USES THEREOF” (Tay Therapeutics Limited, priority 2022, published 2026)
Several values for one entry are separate records, joined by “and”; a condition that tells them apart may be missing. Equal entries are not always repeated.

Tested on: imiquimod-induced psoriasis
Experiment: Imiquimod-induced psoriasis model
Assay type: in vivo, mice
Conditions: for Body Weight D1: Day 1 (before treatment start on Day 8); for Body Weight D1 / Body Weight D3 / Body Weight D5 / Body Weight D7 / Body Weight D8 / Body Weight D9 / Body Weight D10 / Body Weight D11 / Body Weight D12 / Body Weight D13 / Body Weight D14 / Body Weight D15 / MBWC D1-D8 / MBWC D8-D15 / PASI Scores: individual animals; for Body Weight D3: Day 3 (before treatment start on Day 8); for Body Weight D5: Day 5 (before treatment start on Day 8); for Body Weight D7: Day 7 (before treatment start on Day 8); for Body Weight D8: Day 8 (first day of treatment); for Body Weight D9: Day 9; for Body Weight D10: Day 10; for Body Weight D11: Day 11; for Body Weight D12: Day 12; for Body Weight D13: Day 13; for Body Weight D14: Day 14; for Body Weight D15: Day 15; for MBWC D1-D8: body weight change Day 1 to Day 8 (before treatment); for MBWC D8-D15: body weight change Day 8 to Day 15 (treatment period); for PASI Scores: IMI + Compound A 1 mg/kg
How it was run: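 Psoriasis-like dermatitis induced in mice by daily dorsal imiquimod cream (Days 1–14); dosing with Compound A (5% DMSO/40% PEG-400/55% saline vehicle) began Day 8. Read-outs: summed 0–4 scores for erythema, induration and peeling daily to Day 15, plus terminal spleen ratio, behaviour and serum cytokines.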

[1] = IMI + 1 mg/kg, 1 mg/kg, in g (unit assumed)
[2] = IMI + 3 mg/kg, 3 mg/kg, in g (unit assumed)
[3] = IMI + 10 mg/kg, 10 mg/kg, in g (unit assumed)

Cn1cc(-c2ccccc2)c(-c2cn(C)c(=O)c3[nH]c(-c4cnn(C(F)(F)F)c4)cc23)cc1=O [Compound A, 6-methyl-4-(1-methyl-2-oxo-5-phenyl-1,2-dihydropyridin-4-yl)-2-(1-(trifluoromethyl)-1H-pyrazol-4-yl)-1,6-dihydro-7H-pyrrolo[2,3-c]pyridin-7-one]
PASI score improvement by day 15 (1 mg/kg): > 80% | PASI score improvement by day 15 (3 mg/kg): > 90% | symptoms by day 15 (representative images) (3 mg/kg): nearly entirely symptom free | PASI-90 (change in PASI score ≥90%) by day 7 of treatment (3 mg/kg IP once daily): surpassed PASI-90 | PASI score improvement by day 15 (10 mg/kg): > 90% | efficacy on the treatment of psoriasis (3 tested doses (1, 3, 10 mg/kg)): very good efficacy | licking scoring (D15): effective in reducing licking scoring | rearing behavior (D15, open field): restored rearing behavior | Body Weight D1 [1]: 16.93 and 17.80 and 16.08 and 16.97 and 17.74 and 17.12 and 18.36 and 17.34 | Body Weight D3 [1]: 15.40 and 16.02 and 15.09 and 15.92 and 16.29 and 16.59 and 16.98 and 15.19 | Body Weight D5 [1]: 15.20 and 16.76 and 15.65 and 16.45 and 16.71 and 17.23 and 17.40 and 15.42 | Body Weight D7 [1]: 15.18 and 17.36 and 15.85 and 16.10 and 16.71 and 17.27 and 17.41 and 15.38 | Body Weight D8 [1]: 14.60 and 16.99 and 15.82 and 16.44 and 16.60 and 17.49 and 16.66 and 14.75 | Body Weight D9 [1]: 14.63 and 17.16 and 15.82 and 16.15 and 16.59 and 17.04 and 16.41 and 15.55 | Body Weight D10 [1]: 14.70 and 16.93 and 15.61 and 15.89 and 16.21 and 16.73 and 16.12 and 15.11 | Body Weight D11 [1]: 14.84 and 17.22 and 15.81 and 15.74 and 16.25 and 16.90 and 16.89 and 15.58 | Body Weight D12 (IMI + 1 mg/kg, 1 mg/kg): 14.87 and 16.99 (2×) and 15.46 and 15.54 and 17.30 and 17.06 and 15.66 | Body Weight D13 [1]: 15.05 and 17.40 and 16.20 and 15.94 and 16.75 and 17.05 and 16.69 and 15.46 | Body Weight D14 [1]: 15.56 and 17.50 and 16.49 and 16.50 and 17.20 and 17.24 and 16.86 and 16.35 | Body Weight D15 [1]: 15.74 and 17.76 and 16.69 and 17.05 and 17.07 and 17.34 and 17.23 and 16.41 | MBWC D1-D8 (IMI + 1 mg/kg, 1 mg/kg): −2.33 and −0.81 and −0.26 and −0.53 and −1.14 and 0.37 and −1.70 and −2.59 | MBWC D8-D15 (IMI + 1 mg/kg, 1 mg/kg): 1.14 and 0.77 and 0.87 and 0.61 and 0.47 and −0.15 and 0.57 and 1.66 | Body Weight D1 [2]: 17.31 and 16.98 and 19.05 and 16.34 and 18.16 and 17.71 and 15.90 and 17.04 | Body Weight D3 [2]: 15.94 and 14.69 and 16.63 and 15.29 and 15.93 and 15.05 and 14.65 and 15.53 | Body Weight D5 [2]: 16.84 and 15.15 and 16.74 and 15.65 and 17.11 and 16.06 and 16.09 and 15.35 | Body Weight D7 [2]: 16.64 and 14.71 and 16.54 and 14.84 and 17.16 and 15.73 and 15.75 and 15.45 | Body Weight D8 (IMI + 3 mg/kg, 3 mg/kg): 16.59 and 14.84 and 16.76 and 15.51 (2×) and 15.95 and 15.14 and 15.67 | Body Weight D9 [2]: 16.53 and 14.49 and 16.98 and 15.40 and 16.26 and 15.22 and 15.49 and 14.89 | Body Weight D10 [2]: 16.64 and 14.53 and 17.40 and 15.71 and 16.02 and 15.31 and 14.80 and 14.76 | Body Weight D11 [2]: 17.05 and 14.95 and 17.25 and 15.60 and 16.07 and 15.67 and 15.43 and 15.33 | Body Weight D12 [2]: 17.56 and 15.38 and 17.88 and 15.18 and 16.82 and 16.07 and 15.80 and 15.88 | Body Weight D13 [2]: 17.68 and 16.03 and 18.03 and 15.39 and 16.24 and 16.09 and 15.63 and 15.61 | Body Weight D14 [2]: 17.80 and 16.01 and 17.97 and 15.32 and 16.91 and 16.84 and 15.90 and 15.97 | Body Weight D15 (IMI + 3 mg/kg, 3 mg/kg): 18.44 (2×) and 16.47 (2×) and 15.82 and 16.95 and 16.91 and 16.13 | MBWC D1-D8 (IMI + 3 mg/kg, 3 mg/kg): −0.72 and −2.14 and −2.29 and −0.83 and −2.21 and −2.57 and −0.39 and −1.37 | MBWC D8-D15 (IMI + 3 mg/kg, 3 mg/kg): 1.85 and 1.63 and 1.68 and 0.31 and 1.00 and 1.77 and 0.62 and 0.80 | Body Weight D1 [3]: 17.49 and 17.30 and 19.10 and 19.20 and 19.68 and 17.68 and 16.28 and 17.45 | Body Weight D3 [3]: 15.01 and 14.91 and 17.43 and 18.70 and 15.42 and 17.04 and 13.99 and 14.57 | Body Weight D5 (IMI + 10 mg/kg, 10 mg/kg): 15.12 (2×) and 14.82 and 17.32 and 19.02 and 15.82 and 16.99 and 15.18 | Body Weight D7 [3]: 16.33 and 15.77 and 17.25 and 18.62 and 16.18 and 17.36 and 15.18 and 14.93 | Body Weight D8 [3]: 16.07 and 15.40 and 17.12 and 18.84 and 15.35 and 16.21 and 14.88 and 14.68 | Body Weight D9 [3]: 15.69 and 15.96 and 16.63 and 19.27 and 15.91 and 16.41 and 14.96 and 14.71 | Body Weight D10 [3]: 15.53 and 15.84 and 16.68 and 18.91 and 16.27 and 16.73 and 15.10 and 14.49 | Body Weight D11 (IMI + 10 mg/kg, 10 mg/kg): 15.74 and 15.58 (2×) and 16.84 and 19.15 and 16.81 and 17.05 and 15.32 | Body Weight D12 [3]: 15.83 and 15.88 and 17.03 and 19.25 and 17.13 and 17.19 and 16.27 and 15.58 | Body Weight D13 [3]: 17.35 and 16.03 and 17.55 and 19.51 and 16.98 and 17.10 and 16.02 and 15.65 | Body Weight D14 [3]: 16.58 and 16.42 and 17.59 and 19.36 and 17.68 and 17.84 and 16.59 and 15.62 | Body Weight D15 [3]: 16.60 and 16.43 and 18.35 and 19.39 and 17.81 and 18.26 and 16.77 and 15.96 | MBWC D1-D8 (IMI + 10 mg/kg, 10 mg/kg): −1.42 and −1.90 and −1.98 and −0.36 and −4.33 and −1.47 and −1.40 and −2.77 | MBWC D8-D15 (IMI + 10 mg/kg, 10 mg/kg): 0.53 and 1.03 and 1.23 and 0.55 and 2.46 and 2.05 and 1.89 and 1.28 | PASI Scores (D8 (day treatment started), 1 mg/kg): 8 (4×) and 6 (2×) and 7 (2×) | PASI Scores (D9, 1 mg/kg): 7 (3×) and 6 (3×) and 9 and 8 | PASI Scores (D10, 1 mg/kg): 7 and 6 (3×) and 5 (3×) and 8 | PASI Scores (D11, 1 mg/kg): 6 (3×) and 4 (2×) and 5 and 8 and 7
